Here are results for 22 compounds from ChEMBL document CHEMBL5665443, “Enzyme Inhibitor Single Concentration assay results for EUbOPEN Chemogenomics Library” (2024).

Common to all, as to conditions: Compound Concentration 10.0 uM, Hit No
The target of assay [1] is N-glycosylase/DNA lyase (Homo sapiens) (UniProt O15527).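 Also: OGG1 cleavage of a quenched duplex DNA oligonucleotide, coupled to APE1 for strand incision, read as fluorescence at 594 nm.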
Description: Inhibition of OGG1 by quantifying inhibition of OGG1-mediated cleavage and dissociation of quenched duplex DNA oligonucleotides, measured as fluorescence at 594 nm. To generate a functional strand incision and increase turn-over this assay is coupled to APE1.
The target of assay [2] is T1, Adenine DNA glycosylase (Homo sapiens) (UniProt Q9UIF7).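 Also: human MUTYH activity read as 594 nm fluorescence from cleavage and release of a quenched DNA duplex, coupled with APE1 for strand incision, lower signal meaning inhibition.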
T1 sequence (whole entry): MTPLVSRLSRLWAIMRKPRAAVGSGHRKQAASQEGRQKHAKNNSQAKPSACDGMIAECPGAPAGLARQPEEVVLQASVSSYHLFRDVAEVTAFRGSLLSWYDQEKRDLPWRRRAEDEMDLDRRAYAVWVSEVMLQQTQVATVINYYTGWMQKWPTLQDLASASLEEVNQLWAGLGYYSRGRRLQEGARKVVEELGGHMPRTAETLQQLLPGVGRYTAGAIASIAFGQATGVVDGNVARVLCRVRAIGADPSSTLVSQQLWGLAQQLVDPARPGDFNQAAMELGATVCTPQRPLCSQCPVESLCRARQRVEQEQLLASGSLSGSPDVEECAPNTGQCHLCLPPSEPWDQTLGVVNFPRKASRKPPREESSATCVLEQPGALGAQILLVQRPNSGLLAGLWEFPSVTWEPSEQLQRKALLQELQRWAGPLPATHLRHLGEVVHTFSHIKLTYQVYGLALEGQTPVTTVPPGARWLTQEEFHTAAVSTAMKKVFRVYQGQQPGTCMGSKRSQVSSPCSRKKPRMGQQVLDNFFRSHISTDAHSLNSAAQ
Description: Inhibition of MUTYH by quantifying inhibition of MUTYH-mediated cleavage and dissociation of quenched duplex DNA oligonucleotides, measured as fluorescence at 594 nm. To generate a functional strand incision and increase turn-over this assay is coupled to APE1.

For assay [3], the target named is Methyl-CpG-binding domain protein 4 (Homo sapiens) (UniProt O95243).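 Also: MBD4 activity read as fluorescence at 594 nm from cleavage and release of a quenched duplex DNA oligonucleotide, with APE1 coupled to incise the strand and raise turnover.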
Methyl-CpG-binding domain protein 4 (Homo sapiens), sequence (O95243 whole entry, the tested form may be a part): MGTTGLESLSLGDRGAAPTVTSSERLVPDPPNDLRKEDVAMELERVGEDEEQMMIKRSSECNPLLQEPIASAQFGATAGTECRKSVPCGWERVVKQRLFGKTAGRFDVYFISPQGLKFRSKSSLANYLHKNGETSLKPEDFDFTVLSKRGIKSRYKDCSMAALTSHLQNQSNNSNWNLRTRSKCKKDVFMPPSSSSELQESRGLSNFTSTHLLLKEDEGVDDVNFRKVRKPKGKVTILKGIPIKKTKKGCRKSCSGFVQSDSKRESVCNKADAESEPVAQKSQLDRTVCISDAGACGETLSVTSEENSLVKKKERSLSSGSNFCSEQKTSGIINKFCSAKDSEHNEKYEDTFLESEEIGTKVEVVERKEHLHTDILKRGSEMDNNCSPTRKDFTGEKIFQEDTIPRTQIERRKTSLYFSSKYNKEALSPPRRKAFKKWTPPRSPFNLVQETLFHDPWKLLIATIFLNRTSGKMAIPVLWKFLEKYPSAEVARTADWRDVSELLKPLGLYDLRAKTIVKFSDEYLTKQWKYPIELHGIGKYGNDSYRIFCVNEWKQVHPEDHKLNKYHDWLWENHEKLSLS
Description: Inhibition of MBD4 by quantifying inhibition of MBD4-mediated cleavage and dissociation of quenched duplex DNA oligonucleotides, measured as fluorescence at 594 nm. To generate a functional strand incision and increase turn-over this assay is coupled to APE1.
The target of assay [4] is T2, Endonuclease 8-like 2 (Homo sapiens) (UniProt Q969S2).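 Also: fluorescence at 594 nm reports NEIL2 cutting and release of a quenched double-stranded DNA oligo substrate, reduced signal read as inhibition.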
T2 sequence (whole entry): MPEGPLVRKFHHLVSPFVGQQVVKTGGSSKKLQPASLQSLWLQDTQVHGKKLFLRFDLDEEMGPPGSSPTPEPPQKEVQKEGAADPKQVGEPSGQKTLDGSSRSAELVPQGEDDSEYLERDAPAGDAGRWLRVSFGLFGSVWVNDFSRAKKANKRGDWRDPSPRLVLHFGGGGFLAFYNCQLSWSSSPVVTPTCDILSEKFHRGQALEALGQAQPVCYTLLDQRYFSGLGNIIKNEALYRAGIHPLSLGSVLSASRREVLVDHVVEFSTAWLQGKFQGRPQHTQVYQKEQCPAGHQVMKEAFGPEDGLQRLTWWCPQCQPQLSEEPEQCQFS
Description: Inhibition of NEIL2 by quantifying inhibition of NEIL2-mediated cleavage and dissociation of quenched duplex DNA oligonucleotides, measured as fluorescence at 594 nm.

The target in assay [5] is Endonuclease 8-like 1 (Homo sapiens) (UniProt Q96FI4).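 Also: fluorescence at 594 nm from quenched duplex DNA oligonucleotides released by NEIL1 cleavage and strand separation, reported as reduction of this enzyme activity.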
Endonuclease 8-like 1 (Homo sapiens), sequence (Q96FI4 whole entry): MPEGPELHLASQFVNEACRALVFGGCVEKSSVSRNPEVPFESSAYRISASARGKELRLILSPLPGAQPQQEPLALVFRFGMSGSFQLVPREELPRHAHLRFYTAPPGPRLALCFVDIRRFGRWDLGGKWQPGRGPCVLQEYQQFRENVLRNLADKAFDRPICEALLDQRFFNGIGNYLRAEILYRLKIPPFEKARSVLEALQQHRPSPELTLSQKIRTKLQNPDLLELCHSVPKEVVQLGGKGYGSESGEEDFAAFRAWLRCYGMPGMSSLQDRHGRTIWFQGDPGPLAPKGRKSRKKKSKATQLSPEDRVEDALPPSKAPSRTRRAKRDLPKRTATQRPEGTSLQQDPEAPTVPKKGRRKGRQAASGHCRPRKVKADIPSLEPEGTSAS
Description: Inhibition of NEIL1 by quantifying inhibition of NEIL1-mediated cleavage and dissociation of quenched duplex DNA oligonucleotides, measured as fluorescence at 594 nm.
For assay [6], the target named is G/T mismatch-specific thymine DNA glycosylase (Homo sapiens) (UniProt Q13569).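 Also: human TDG cleavage of quenched duplex DNA oligonucleotides coupled to APE1, strand release read as fluorescence at 594 nm, inhibition of TDG activity.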
G/T mismatch-specific thymine DNA glycosylase (Homo sapiens), sequence (Q13569 whole entry): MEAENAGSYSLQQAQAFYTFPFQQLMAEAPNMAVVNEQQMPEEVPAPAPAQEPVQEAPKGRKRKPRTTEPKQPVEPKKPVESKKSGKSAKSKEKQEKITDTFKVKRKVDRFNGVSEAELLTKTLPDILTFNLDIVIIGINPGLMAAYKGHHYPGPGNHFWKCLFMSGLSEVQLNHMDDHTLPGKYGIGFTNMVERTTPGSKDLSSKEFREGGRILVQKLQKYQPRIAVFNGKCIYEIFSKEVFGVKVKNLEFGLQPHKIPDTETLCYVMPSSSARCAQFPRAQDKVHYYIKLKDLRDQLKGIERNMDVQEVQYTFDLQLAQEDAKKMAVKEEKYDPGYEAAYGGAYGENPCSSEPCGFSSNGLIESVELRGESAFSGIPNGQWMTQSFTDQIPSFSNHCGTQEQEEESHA
Description: Inhibition of TDG by quantifying inhibition of TDG-mediated cleavage and dissociation of quenched duplex DNA oligonucleotides, measured as fluorescence at 594 nm. To generate a functional strand incision and increase turn-over this assay is coupled to APE1.
Assay [7] addresses DNA-3-methyladenine glycosylase (Homo sapiens) (UniProt P29372).
Description: Inhibition of MPG by quantifying inhibition of MPG-mediated cleavage and dissociation of quenched duplex DNA oligonucleotides, measured as fluorescence at 594 nm. To generate a functional strand incision and increase turn-over this assay is coupled to APE1.
Assay [8] has as its target Uracil-DNA glycosylase (Homo sapiens) (UniProt P13051).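 Also: UNG excision on a quenched double-stranded DNA oligo probe, with APE1 added for strand incision and turnover, read as fluorescence at 594 nm as strands separate.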
Description: Inhibition of UNG by quantifying inhibition of UNG-mediated cleavage and dissociation of quenched duplex DNA oligonucleotides, measured as fluorescence at 594 nm. To generate a functional strand incision and increase turn-over this assay is coupled to APE1.
In assay [9] the target is T3, Single-strand selective monofunctional uracil DNA glycosylase (Homo sapiens) (UniProt Q53HV7).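 Also: enzymatic SMUG1 assay coupled with APE1, reading fluorescence at 594 nm released when a quenched double-stranded DNA oligonucleotide substrate is cleaved and separated.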
T3 sequence (whole entry): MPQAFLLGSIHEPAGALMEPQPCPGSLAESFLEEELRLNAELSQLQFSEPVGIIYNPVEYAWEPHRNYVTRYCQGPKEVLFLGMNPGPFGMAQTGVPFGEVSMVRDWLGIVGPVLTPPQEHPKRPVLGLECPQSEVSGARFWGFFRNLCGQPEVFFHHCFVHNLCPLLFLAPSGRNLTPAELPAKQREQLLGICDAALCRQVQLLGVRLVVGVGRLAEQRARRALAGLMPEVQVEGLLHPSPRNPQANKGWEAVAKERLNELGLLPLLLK
Description: Inhibition of SMUG1 by quantifying inhibition of SMUG1-mediated cleavage and dissociation of quenched duplex DNA oligonucleotides, measured as fluorescence at 594 nm. To generate a functional strand incision and increase turn-over this assay is coupled to APE1.

In assay [10] the target is T4, Endonuclease III-like protein 1 (Homo sapiens) (UniProt P78549).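 Also: enzyme assay tracking NTHL1 cutting and release of a quenched double-stranded DNA oligo substrate, read as fluorescence at 594 nm.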
T4 sequence (whole entry): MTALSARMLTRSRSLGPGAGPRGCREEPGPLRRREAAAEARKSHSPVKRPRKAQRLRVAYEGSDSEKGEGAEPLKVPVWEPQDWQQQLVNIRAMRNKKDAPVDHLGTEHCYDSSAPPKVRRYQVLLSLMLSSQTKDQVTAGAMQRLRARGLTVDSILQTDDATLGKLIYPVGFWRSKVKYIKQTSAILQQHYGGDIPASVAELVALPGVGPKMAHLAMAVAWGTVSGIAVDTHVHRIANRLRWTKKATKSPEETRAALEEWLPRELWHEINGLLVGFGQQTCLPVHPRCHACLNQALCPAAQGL
Description: Inhibition of NTHL1 by quantifying inhibition of NTHL1-mediated cleavage and dissociation of quenched duplex DNA oligonucleotides, measured as fluorescence at 594 nm.

The structures appear in SMILES notation. “And” between values parts separate entries of the source, which are not always exact repeats. Identical values can stand only once.

Uracil-DNA glycosylase (Homo sapiens), sequence (P13051 whole entry): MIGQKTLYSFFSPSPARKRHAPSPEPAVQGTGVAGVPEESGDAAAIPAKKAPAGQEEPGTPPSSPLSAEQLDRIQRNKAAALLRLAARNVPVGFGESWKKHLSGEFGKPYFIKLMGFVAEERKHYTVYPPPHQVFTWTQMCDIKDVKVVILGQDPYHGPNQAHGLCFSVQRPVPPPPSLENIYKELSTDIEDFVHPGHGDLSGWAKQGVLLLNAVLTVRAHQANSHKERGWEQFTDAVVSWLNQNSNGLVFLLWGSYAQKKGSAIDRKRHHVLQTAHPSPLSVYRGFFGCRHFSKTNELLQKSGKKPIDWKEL
DNA-3-methyladenine glycosylase (Homo sapiens), sequence (P29372 whole entry): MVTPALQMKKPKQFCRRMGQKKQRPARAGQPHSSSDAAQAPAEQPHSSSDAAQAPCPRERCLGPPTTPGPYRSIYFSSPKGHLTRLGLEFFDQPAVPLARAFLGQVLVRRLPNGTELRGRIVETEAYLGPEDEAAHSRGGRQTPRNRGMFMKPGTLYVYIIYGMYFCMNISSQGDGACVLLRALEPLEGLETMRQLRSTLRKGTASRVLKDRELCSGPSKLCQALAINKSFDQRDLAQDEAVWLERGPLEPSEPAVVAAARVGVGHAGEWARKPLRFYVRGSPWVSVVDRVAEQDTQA
N-glycosylase/DNA lyase (Homo sapiens), sequence (O15527 whole entry): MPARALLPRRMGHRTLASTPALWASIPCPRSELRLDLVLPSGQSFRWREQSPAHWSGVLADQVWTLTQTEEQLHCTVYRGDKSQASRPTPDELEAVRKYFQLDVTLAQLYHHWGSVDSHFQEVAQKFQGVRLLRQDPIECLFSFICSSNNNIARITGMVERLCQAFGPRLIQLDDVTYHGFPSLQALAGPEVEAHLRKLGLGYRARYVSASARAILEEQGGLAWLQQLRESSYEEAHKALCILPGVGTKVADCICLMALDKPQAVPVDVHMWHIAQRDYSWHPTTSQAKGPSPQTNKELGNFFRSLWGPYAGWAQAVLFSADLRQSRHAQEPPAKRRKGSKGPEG

In general, inhibition refers to the relative decrease from the control value, in per cent. With `CCN(Cc1ccncc1)C(=O)C(CO)c1ccccc1` (centres undefined), the inhibition in assay [1] was -6.9%; in [2] it was 14%; in [3], 1.02%; in assay [4], 9.75%; in assay [5] it was -2.58%; in assay [6] it was 7.61%. Moreover, the inhibition in assay [7] turned out to be 3.77%.
Regarding `CCCn1c(=O)c2[nH]c(-c3ccc(OCC(=O)Nc4ccc(C#N)cc4)cc3)nc2n(CCC)c1=O`, the inhibition in assay [1] was -7.63%; in assay [2] it was -3.95%; in assay [6], 1.64%; in assay [7], -6.3%; in assay [8] it was -6.42%.
Regarding `c1ccc(NCc2ccc(CNc3ccccn3)cc2)nc1`, the inhibition in assay [1] was -3.65%; in [2] it was -5.87%; in [4] it was -4.48%; in assay [5] it was 3.5%; in [6] it was 13.4%; in assay [7], -3.14%.
With `CNC[C@H](O)c1ccc(O)c(O)c1`, the inhibition was determined as 30.3% in assay [1]; 28.8% in assay [2]; 46.8% in assay [3]; 9.88% in assay [5]; 37.5% in [6]; 10.2% in assay [7].
`O=c1ccn([C@@H]2O[C@H](COP(=O)(O)OP(=O)(O)O)[C@@H](O)[C@H]2O)c(=O)[nH]1`: the inhibition in assay [1] is -4.12%; in assay [2], 23.4%; in assay [4], 2.51%; in assay [5] it was -1.39%; in assay [6], 19.1%; in [7], -2.06%. Besides, the inhibition in assay [8] was -4.06%.
`Cc1ccc(-c2ccc(F)cc2COc2ccc(CCC(=O)O)cc2)cc1`: the inhibition in assay [1] worked out at 31.9%; in assay [2] it was 37.1%; in assay [3] it was 34.9%; in [4], 4.26%; in assay [5], 4.39%; in assay [6], 27.6%. Further, the inhibition in assay [7] turned out to be 13.7%.
`CC(C)Cc1ccc([C@@H](C)C(=O)NS(C)(=O)=O)cc1`: the inhibition in [1] is -2.17%; in assay [2], 19%; in assay [9], 0.354%; in [4] it was -1.98%; in assay [5], 1.28%; in assay [6], 3.68%. Moreover, the inhibition was -0.553% in [7] and -7.7% in assay [8].
With `N[C@H](C(=O)O)c1ccc(C(=O)O)c(C(=O)O)c1`, the inhibition is -7.96% in [1]; 10.4% in [2]; -4.49% in [9]; 5.76% in assay [4]; -4.06% in assay [5]; 4.6% in assay [6]. In addition, the inhibition in assay [7] was -6.3%.
As for `Cc1onc(-c2ccccc2Cl)c1C(=O)N(C)c1ccc(Cl)cc1`, the inhibition in assay [1] was -3.42%; in [2], 15.8%; in [9], 3.65%; in assay [4], 7%; in [5] it was -2.13%; in [6] it was 12.4%. In addition, the inhibition in assay [7] is -3.37%; in assay [8] it was -8.91%.
For the compound `Clc1cccc(Cl)c1NC1=NCCN1`, the inhibition in [1] is -5.49%; in assay [2], 14.7%; in assay [4] it was 1.76%; in assay [5], -1.69%; in [6] it was 0.825%; in assay [7] it was -5.72%.
Take `CC(C)(C)c1ccc(S(=O)(=O)Nc2ccc(Cl)cc2C(=O)c2cc[n+]([O-])cc2)cc1`: the inhibition is 1.79% in [1]; -4.97% in assay [2]; -0.483% in assay [4]; 3.35% in assay [5]; -0.448% in [6]; 1.3% in assay [7].
On to `CCC(=N\O)/C(C)=C/c1ccc(F)cc1`, for which the inhibition is 8.29% and 3.66% in assay [1]; -8.19% and -8.38% in [2]; 15.6% and 4.45% in assay [9]; -6.1% and 1.43% in assay [4]; 0.164% and -0.139% in [5]; 12.6% in [7]. For the same compound, in [8], the inhibition is -0.0369% and -2.61%.
Take `Cc1ccc(/C(=C\CN2CCCC2)c2ccccn2)cc1`: the inhibition is -5.51% in assay [1]; 2.96% in assay [2]; -4.67% in assay [3]; -2.48% in assay [4]; 5.28% in assay [5]; 1.66% in assay [6]. In addition, the inhibition in assay [7] is -1.09%.
In the case of `Nc1nc(NCCc2ccc(O)cc2)nc2nc(-c3ccco3)nn12`, the inhibition in assay [1] was -7.81%; in assay [2], 18.6%; in assay [9], -6.72%; in [4] it was 6%; in assay [5], -1.69%; in assay [6], -0.119%. Further, in assay [7], the inhibition was -1.9%.
Regarding `Cc1cnc(CNCC2(F)CCN(C(=O)c3ccc(F)c(Cl)c3)CC2)nc1`, the inhibition is -1.55% in assay [1]; -3.43% in assay [2]; -8.17% in assay [9]; 7.5% in [4]; 2.32% in assay [5]; 6.93% in assay [6]. Also, the inhibition in assay [7] is 6.04%; in assay [8], -8.07%.
`CC(C)NCC(O)COc1cccc2[nH]ccc12` (centres undefined): the inhibition in [1] was -5.87%; in assay [2] it was -5.48%; in [4], 4.01%; in [5], 2.76%; in assay [6], 3.97%; in assay [7] it was 6.08%. Besides, the inhibition in assay [8] was -6.49%.
On to `CN1CCN2c3ncccc3Cc3ccccc3C2C1` (centres undefined), for which the inhibition was -6.38% in [1]; -2.92% in assay [2]; 10% in [4]; 3.95% in assay [5]; -8.16% in assay [6]; -7.53% in assay [7].
Consider `CCc1nc2c(C)cc(C)nc2[nH]1`, for which the inhibition in [2] is -7.66%; in [4] it was 6.75%; in assay [5], 2.46%; in assay [6], -2.03%; in assay [7], 5.35%.
As to `Clc1ccc2nsnc2c1NC1=NCCN1`, the inhibition in assay [1] is -1.01%; in assay [2] it was -8.81%; in assay [9], 2.87%; in assay [4] it was 0.515%; in [5], -3.76%; in assay [6] it was 12%. Moreover, the figures for the inhibition in assay [7] and in [8] were 6.04% and -7.76%, respectively.
As for `Cc1cccc(NC(=O)N[C@@H]2N=C(c3ccccc3)c3ccccc3N(C)C2=O)c1`, the inhibition in assay [1] was -6.8%; in assay [2], 10.5%; in assay [9] it was -5.61%; in [4] it was -1.73%; in assay [6] it was 12.3%; in assay [7], 17%.
In the case of `OC(CN1CCC(Cc2ccc(F)cc2)CC1)c1ccc(Cl)cc1` (centres undefined), the inhibition in assay [10] was 8.82%; in [1], -4.77%; in assay [9], -3.86%; in assay [3] it was -0.39%; in [4], -7.99%; in assay [5], 0.602%. The values for the inhibition in assay [6], in assay [7] and in assay [8] were -8.99%, 4.63% and -7.04%, respectively.
As to `COCCCN1CCC(NC(=O)c2cc(Cl)c(N)c3c2OCC3)CC1`, the inhibition was -3.13% in [1]; 17.3% in assay [2]; -0.983% in assay [4]; -6.73% in assay [5]; 2.17% in [6]; 8.09% in assay [7].
